According to ChEMBL document CHEMBL5728364, “Compounds as autotaxin inhibitors and pharmaceutical compositions comprising the same” (2021):

target: Autotaxin (Homo sapiens, UniProt Q13822); test: Inhibitory Activity Assay: Two-fold dilution of each test compound solution (10 μM, 100% dimethyl sulfoxide) is carried out on 96-well V bottom plate (Costar 3363). After ten-fold dilution of each the test compound solution (100% dimethyl sulfoxide) with deionized distilled water, 10 μL of the diluted each mpound solution (10% dimethyl sulfoxide) was aliquoted to a black flat bottom 96-well plate (Costar 3915). 50 μL of 1.6× Assay solution (224 mM NaCl, 80 mM Tris-HCl (pH 8.0), 8 mM KCl, 1.6 mM CaCl2, 1.6 mM MgCl2, and 1.6 mg/mL fatty acid free BSA) was added thereto, and subsequently 20 μL of 20 nM human ENPP2 solution (buffer solution: 140 mM NaCl, 50 mM Tris-HCl (pH 8.0), 5 mM KCl, 1 mM CaCl2, 1 mM MgCl2, and 1 mg/mL fatty acid free BSA) and 20 μL of 5 μM FS-3 solution (buffer solution:deionized distilled water) were added thereto, respectively, followed by mixing.

IC50 [nM]	Compound
2.5	O=C(Cc1nc(-c2cnc(NC3Cc4ccccc4C3)nc2)no1)N1CCc2[nH]nnc2C1
4.6	NS(=O)(=O)NC1CCN(C(=O)Cc2nnc(-c3cnc(NC4Cc5ccccc5C4)nc3)o2)C1 (centres undefined)
2.9	O=C(Cn1cc(-c2cnc(NCc3cccc(OC(F)(F)F)c3)nc2)nn1)N1CCc2[nH]nnc2C1
2.9	O=C(NCCN1CCN(c2cnc(NC3Cc4ccccc4C3)nc2)CC1)c1ccc2[nH]c(=O)oc2c1
